The source of these data is patent US20150189883A1, “METHODS OF CONTROLLING INSECTS” (Syngenta Participations AG, priority 2012, published 2015).

For assay [1], the system named is Nilaparvata lugens (Brown Plant Hopper). Nature of the assay: Nilaparvata lugens (Brown Plant Hopper) rice seedling spray test, mortality. It counts as in vivo. To be noted: read-out: Control/%.
The test system of assay [2] is Chilo suppressalis (Rice Stem Borer). Nature of the assay: Chilo suppressalis (Rice Stem Borer) treated rice leaf petri dish test, mortality. The format is in vivo. To be noted: read-out: Control/%. Here is the method: Nephotettix virescens (Green Leafhopper) Rice seedlings are treated with the diluted test solutions in a spray chamber. After drying, plants are infested with 10 N5 nymphs (3 replicates). 5 days after the treatment samples are checked for mortality. […] After drying, plants are infested with 20 N3 nymphs (2 replicates). 6-12 days after the treatment samples are checked for mortality. […] 10 larvae (L2) are added and the dish is covered with a filter tissue and a plastic lid. 5 days after treatment the percentage mortality is assessed (3 replicates per concentration).
The data in the comparative Examples below were obtained using the methods described above.

Setting [3] is: Chilo suppressalis (Rice stem borer), application rate 0.2 ppm.
The mark [4] stands for this setting: Chilo suppressalis (Rice stem borer), application rate 0.8 ppm.
[5] abbreviates: Nilaparvata lugens (Brown plant hopper), application rate 25 ppm.
Setting [6] is: Nilaparvata lugens (Brown plant hopper), application rate 50 ppm.

Molecules are shown by their SMILES. Read-outs that look alike come from different tables or passages of the source.

As to `Cc1cc(C2=NOC(c3cc(Cl)c(Br)c(Cl)c3)(C(F)(F)F)C2)ccc1C(=O)NC1CSC1` (stereo not shown) [drawing 35], in assay [1] (Nilaparvata lugens), the pest or weed control at 25 ppm was determined as 30% and the pest or weed control at 50 ppm turned out to be 80%.
Turning to `O=C(NC1CSC1)c1ccc(C2=NO[C@@](c3cc(Cl)cc(Cl)c3)(C(F)(F)F)C2)cc1Cl` [drawing 37], in assay [1] (Nilaparvata lugens), the pest or weed control at 25 ppm is 15% and the pest or weed control at 50 ppm is 45%.
Regarding `Cc1cc(C2=NOC(c3cc(Cl)c(Br)c(Cl)c3)(C(F)(F)F)C2)ccc1C(=O)NC1CSC1` (stereo not shown) [drawing 25], in assay [2] (Chilo suppressalis), the pest or weed control at 0.2 ppm worked out at 97% and the pest or weed control at 0.8 ppm is 100%.
For `Cc1cc(C2=NOC(c3cc(Cl)c(Br)c(Cl)c3)(C(F)(F)F)C2)ccc1C(=O)NC1(C)CSC1` (stereo not shown) [drawing 26], in that order: 40% and 80%.
In the case of `Cc1cc(C2=NCC(c3cc(Cl)cc(Cl)c3)(C(F)(F)F)C2)ccc1C(=O)NC1CS(=O)(=O)C1` (stereo not shown) [drawing 23], the pest or weed control at 0.2 ppm in assay [2] (setting [3]) stood at 97%. For the same compound, the pest or weed control at 0.8 ppm in assay [2] (setting [4]) stood at 100%.
In the case of `Cc1cc(C2=NCC(c3cc(Cl)cc(Cl)c3)(C(F)(F)F)C2)ccc1C(=O)NC1CSC1` (stereo not shown) [drawing 31], in assay [1] (setting [5]), the pest or weed control at 25 ppm is 100%. In assay [1] (setting [6]), the pest or weed control at 50 ppm is 100%.
As for `Cc1cc(C2=NOC(c3cc(Cl)cc(Cl)c3)(C(F)(F)F)C2)ccc1C(=O)NC1CSC1` (stereo not shown) [Compound of the invention], in assay [2] (Chilo suppressalis), the pest or weed control at 0.2 ppm stood at 93% and the pest or weed control at 0.8 ppm was 100%.
In the case of `Cc1cc(C2=NCC(c3cc(Cl)cc(Cl)c3)(C(F)(F)F)C2)ccc1C(=O)NC1(C)CSC1` (stereo not shown) [drawing 32], in assay [1] (setting [5]), the pest or weed control at 25 ppm was found to be 0%. Moreover, the pest or weed control at 50 ppm in assay [1] (setting [6]) is 0%.
In the case of `Cc1cc(C2=NOC(c3cc(Cl)c(Br)c(Cl)c3)(C(F)(F)F)C2)ccc1C(=O)NC1(C)CSC1` (stereo not shown) [drawing 36], in assay [1] (Nilaparvata lugens), the pest or weed control at 25 ppm worked out at 0% and the pest or weed control at 50 ppm turned out to be 0%.
Take `Cc1cc(C2=NOC(c3cc(Cl)cc(Cl)c3)(C(F)(F)F)C2)ccc1C(=O)NC1(C)CSC1` (stereo not shown) [Reference compound, reference compound]: in assay [2] (Chilo suppressalis), the pest or weed control at 0.2 ppm was 30% and the pest or weed control at 0.8 ppm stood at 40%.
With `Cc1cc(C2=NCC(c3cc(Cl)cc(Cl)c3)(C(F)(F)F)C2)ccc1C(=O)NC1CSC1` (stereo not shown) [drawing 21], in assay [2] (setting [3]), the pest or weed control at 0.2 ppm turned out to be 40%. The pest or weed control at 0.8 ppm in assay [2] (setting [4]) worked out at 90%.
Consider `Cc1cc(C2=NCC(c3cc(Cl)cc(Cl)c3)(C(F)(F)F)C2)ccc1C(=O)NC1(C)CSC1` (stereo not shown) [drawing 22], for which the pest or weed control at 0.2 ppm in assay [2] (setting [3]) was determined as 30%. In assay [2] (setting [4]), the pest or weed control at 0.8 ppm is 60%.
In the case of `Cc1cc(C2=NOC(c3cc(Cl)cc(Cl)c3)(C(F)(F)F)C2)ccc1C(=O)NC1CSC1` (stereo not shown) [drawing 29], in assay [1] (Nilaparvata lugens), the pest or weed control at 25 ppm is 44% and the pest or weed control at 50 ppm stood at 79%.
In the case of `Cc1cc(C2=NCC(c3cc(Cl)cc(Cl)c3)(C(F)(F)F)C2)ccc1C(=O)NC1(C)CS(=O)(=O)C1` (stereo not shown) [drawing 24], in assay [2] (setting [3]), the pest or weed control at 0.2 ppm came out at 23%. Moreover, the pest or weed control at 0.8 ppm in assay [2] (setting [4]) amounted to 60%.
On to `Cc1cc(C2=NCC(c3cc(Cl)cc(Cl)c3)(C(F)(F)F)C2)ccc1C(=O)NC1CS(=O)(=O)C1` (stereo not shown) [drawing 33], for which the pest or weed control at 25 ppm in assay [1] (setting [5]) turned out to be 93%. For the same compound, the pest or weed control at 50 ppm in assay [1] (setting [6]) was found to be 100%.
Consider `Cc1cc(C2=NCC(c3cc(Cl)cc(Cl)c3)(C(F)(F)F)C2)ccc1C(=O)NC1(C)CS(=O)(=O)C1` (stereo not shown) [drawing 34], for which the pest or weed control at 25 ppm in assay [1] (setting [5]) was found to be 0%. For the same compound, the pest or weed control at 50 ppm in assay [1] (setting [6]) came out at 0%.
On to `CC1(NC(=O)c2ccc(C3=NO[C@@](c4cc(Cl)cc(Cl)c4)(C(F)(F)F)C3)cc2Cl)CSC1` [drawing 38], for which, in assay [1] (Nilaparvata lugens), the pest or weed control at 25 ppm worked out at 0% and the pest or weed control at 50 ppm is 30%.
As for `CC1(NC(=O)c2ccc(C3=NO[C@@](c4cc(Cl)cc(Cl)c4)(C(F)(F)F)C3)cc2Cl)CSC1` [drawing 28], in assay [2] (Chilo suppressalis), the pest or weed control at 0.2 ppm turned out to be 80% and the pest or weed control at 0.8 ppm is 97%.
For `O=C(NC1CSC1)c1ccc(C2=NO[C@@](c3cc(Cl)cc(Cl)c3)(C(F)(F)F)C2)cc1Cl` [drawing 27], in that order: 93% and 100%.
As to `Cc1cc(C2=NOC(c3cc(Cl)cc(Cl)c3)(C(F)(F)F)C2)ccc1C(=O)NC1(C)CSC1` (stereo not shown) [drawing 30], in assay [1] (Nilaparvata lugens), the pest or weed control at 25 ppm worked out at 0% and the pest or weed control at 50 ppm worked out at 0%.
